Results on six molecules are retold here after patent US7329680B2, “Heterocycle substituted carboxylic acids” (The Institute for Pharmaceutical Discovery, LLC, priority 2003, dated 2008).

Structures are written as SMILES.

The term melting point denotes the temperature of the solid-liquid transition. `O=C(O)C(=O)Nc1cc(-c2ccc(-c3cccc4c3oc3ccccc34)cc2)cn(Cc2ccccc2)c1=O` [Example 4, N-[1-Benzyl-5-(4-dibenzofuran-4-yl-phenyl)-2-oxo-1,2-dihydro-pyridin-3-yl]-oxalamic acid] had a melting point of 220 to 223 °C.

For `O=C(O)CCNc1cc(-c2ccc(-c3cccc4c3oc3ccccc34)cc2)nc(Cc2ccccc2)n1` [Example 45, 3-[2-Benzyl-6-(4-dibenzofuran-4-yl-phenyl)-pyrimidin-4-ylamino]-propionic acid], the melting point was 205 °C (dec.).

Consider `O=C(O)[C@@H]1CSC(c2ccc(-c3ccc(-n4ccc5ccccc54)cc3)cc2)N1` (stereo in doubt) [Example 27, 2-(4′-Indol-1-yl-biphen-4-yl)thiazolidine-4-carboxylic acid], for which the melting point is 135 to 137 °C (dec.).

As for `CCc1ccc(-c2sc(NC(=O)c3ccc(S(=O)(=O)N4CCCC4C(=O)O)cc3)nc2-c2ccc(Cl)cc2)cc1` (stereo not drawn) [Example 5, 1-{4-[4-(4-Chloro-phenyl)-5-(4-ethyl-phenyl)-thiazol-2-ylcarbamoyl]-benzenesulfonyl}-pyrrolidine-2-carboxylic acid], the melting point lay within 289 to 292 °C.

As for `O=C(O)CCNc1cc(-c2ccc(-c3cccc4c3oc3ccccc34)cc2)nc(-c2ccccc2)n1` [Example 46, 3-[2-phenyl-6-(4-dibenzofuran-4-yl-phenyl)-pyrimidin-4-ylamino]-propionic acid], the melting point was 210 °C (dec.).

As to `O=C(O)[C@@H]1CSC(c2ccc(-c3ccc(-c4c(Cc5ccccc5)oc5ccccc45)cc3)cc2)N1` (mixture of isomers) [Example 38, (2RS,4R)-2-[4′-(2-Benzylbenzofuran-3-yl)biphen-4-yl]thiazolidine-4-carboxylic acid], the melting point was 148 °C (dec.).
